The nature of data set [1]: Sildenafil mean plasma concentration (free drug) in normal and STZ-treated rats on chronic sc dosing. The format is in vivo, rat. The note with it: chronic sildenafil 3 × 20 mg/kg sc/day. The procedure:
(§1) To induce Type 1 diabetes, rats of 200-250 g were injected intra-peritoneally with streptozotocin (60 mg/kg) in citrate phosphate buffer, pH4.5 or the equivalent volume of vehicle. The development of non-keturonic hyperglycaemic diabetes was induced within 48 h and was confirmed by determining blood glucose levels in blood obtained from the tail vein of the rats at 48 h after STZ administration and monitored […] thereafter.
Throughout this period blood samples were taken from the tail vein on a weekly basis. These samples were taken prior to dosing so that trough concentrations could be estimated (ie at 6-8 h post dose). A further sample was taken at week 8 ([…] post dosing).

Data set [2] concerns control and STZ-treated rats. Nature of the data set: Plasma glucose in control and STZ-treated rats (model of Type 1 diabetes) on chronic sildenafil. The note with it: for minimum glucose levels (Table 3), Change from vehicle / minimum glucose levels (Table 3), Sildenafil group / minimum plasma glucose (Table 2), Change from vehicle / minimum plasma glucose (Table 2), Sildenafil group: sildenafil 60 mg/kg/day sc; for minimum plasma glucose (Table 2), Change from vehicle / minimum plasma glucose (Table 2), Sildenafil group: average, week 2 to week 6; for statistical significance (p) of effect of sildenafil on minimum glucose levels / statistical significance (p) of effect of Sildenafil on average glucose: vs vehicle. It counts as in vivo, rat. The procedure: STZ is a nitrosamine which is toxic to the pancreatic β-cells and STZ-treated rats have been used as an experimental model for Type 1 diabetes (see e.g. Ari et al, Clin Sci (Colch) 1999:96:365).
as §1
The Sildenafil-treated rats were divided in two group—normal and STZ-treated. In addition, there were two non-sildenafil groups—again normal and STZ treated. Throughout this period blood samples were taken from the tail vein on a weekly basis. These samples were taken prior to dosing so that trough concentrations could be estimated (ie at 6-8 h post dose). A further sample was taken at week 8 ([…] post dosing). Plasma from these blood samples, from all rats treated with sildenafil, and some controls, were assayed for sildenafil (and its n-desmethyl metabolite).
The plasma from these samples was stored at −20° C. and analysed for levels of glucose using the Roche/Hitachi 912 Clinical Chemistry Analyzer (Roche Diagnostics Corp., Indianapolis, Ind.) with kits supplied by Roche. All assays were conducted according to instructions provided by the manufacturers.

The subject of data set [3] is U397 cells. The note with it: statement quoted from U.S. Pat. No. 6,479,493, column 38; cited from earlier work.

The structures appear in SMILES notation.

In the case of `CCCc1nn(C)c2c(=O)[nH]c(-c3cc(S(=O)(=O)N4CCN(C)CC4)ccc3OCC)nc12` [Sildenafil, 5-[2-ethoxy-5-(4-methyl-1-piperazinylsulphonyl)phenyl]-1-methyl-3-n-propyl-1,6-dihydro-7H-pyrazolo[4,3-d]pyrimidin-7-one], the “Sildenafil Mean plasma concentration (free drug)” value in data set [1] (Normal rats, 2 weeks (6-8 h post dose), n = 12) is listed as 36 nM; in data set [1] (Normal rats, 4 weeks (6-8 h post dose), n = 12) it was 45 nM; in data set [1] (Normal rats, 6 weeks (6-8 h post dose), n = 12), 45 nM; in data set [1] (Normal rats, 8 weeks (32-35 h post dose), n = 12) it was 28 nM; in data set [1] (STZ rats, 2 weeks (6-8 h post dose), N = 6-10), 79 nM; in data set [1] (STZ rats, 4 weeks (6-8 h post dose), N = 6-10) it was 41 nM. For the same compound, the “Sildenafil Mean plasma concentration (free drug)” value in data set [1] (STZ rats, 6 weeks (6-8 h post dose), N = 6-10) was found to be 57 nM; in data set [1] (STZ rats, 8 weeks (32-35 h post dose), N = 6-10), 11 nM. For the same compound, the “minimum glucose levels (Table 3), Change from vehicle” value was -13 mg/dL in data set [2] (Control rats) and -269 mg/dL in data set [2] (STZ-treated rats). In addition, the “minimum glucose levels (Table 3), Sildenafil group” value in data set [2] (Control rats) is 176 mg/dL; in data set [2] (STZ-treated rats), 462 mg/dL. The “minimum plasma glucose (Table 2), Change from vehicle” value in data set [2] (Control rats) was -25 mg/dL; in data set [2] (STZ-treated rats) it was -220 mg/dL. Further, the “minimum plasma glucose (Table 2), Sildenafil group” value in data set [2] (Control rats) was determined as 190 mg/dL; in data set [2] (STZ-treated rats), 583 mg/dL. In addition, the “statistical significance (p) of effect of sildenafil on minimum glucose levels” value in data set [2] (STZ-treated animals, statistically significant effect) is below 0.01; in data set [2] (control rats, no statistically significant effect), above 0.10. Moreover, the entries for the “statistical significance (p) of effect of Sildenafil on average glucose” value in data set [2] (STZ-treated rats) and in data set [2] (control rats) were below 0.05 and below 0.01, respectively. Also, the “effect on average plasma glucose (in words)” value in data set [2] (control and STZ-treated rats, decrease greater in STZ-treated animals) is given as “lowered average glucose in both types of rat”. In addition, the induction of apoptosis result in data set [3] is “does not induce apoptosis”.
